Read-outs that look alike come from different tables or passages of the source. Values belong to the compound of their own block, whether it stands above or below them.
Experiments:
rLacC [1] = system: T1, rLacC; test: spectrophotometric oxidation assay, […] nm, non-linear fit; assay type: biochemical, Trametes hirsuta; conditions: 0.1 M citrate-phosphate pH 4.5, 24°C
T1 construct: gene lacC; recombinant secreted laccase, obtained previously (Savinova et al., 2017)

rLacC [2] = system: T1, rLacC; test: as above; assay type: biochemical, Trametes hirsuta; conditions: 0.1 M citrate-phosphate pH 4.5, 24°C; remark: listed apart in the source
rLacC [3] = system: T2, rLacC; conditions: read-out: KM, μM / rLacC; 0.1 M citrate-phosphate pH 4.5, 24°C
T2 construct: gene lacC

rLacC [4] = system: T1, rLacC; test: spectrophotometric oxidation assay, […] nm, non-linear fit; assay type: biochemical, Trametes hirsuta; conditions: 0.1 M citrate-phosphate pH 4.5, 24°C; remark: listed apart in the source
rLacC [5] = system: T1, rLacC; test: as above; assay type: biochemical, Trametes hirsuta; conditions: 0.1 M citrate-phosphate pH 4.5, 24°C; remark: listed apart in the source
LacA = target: T3, LacA (Trametes hirsuta, UniProt A0A0A7M685); test: as above; assay type: biochemical; conditions: 0.1 M citrate-phosphate pH 4.5, 24°C; cited from earlier work
T3 construct: native major secreted laccase, purified previously (Savinova et al., 2017)
T3 sequence (A0A0A7M685 22-520): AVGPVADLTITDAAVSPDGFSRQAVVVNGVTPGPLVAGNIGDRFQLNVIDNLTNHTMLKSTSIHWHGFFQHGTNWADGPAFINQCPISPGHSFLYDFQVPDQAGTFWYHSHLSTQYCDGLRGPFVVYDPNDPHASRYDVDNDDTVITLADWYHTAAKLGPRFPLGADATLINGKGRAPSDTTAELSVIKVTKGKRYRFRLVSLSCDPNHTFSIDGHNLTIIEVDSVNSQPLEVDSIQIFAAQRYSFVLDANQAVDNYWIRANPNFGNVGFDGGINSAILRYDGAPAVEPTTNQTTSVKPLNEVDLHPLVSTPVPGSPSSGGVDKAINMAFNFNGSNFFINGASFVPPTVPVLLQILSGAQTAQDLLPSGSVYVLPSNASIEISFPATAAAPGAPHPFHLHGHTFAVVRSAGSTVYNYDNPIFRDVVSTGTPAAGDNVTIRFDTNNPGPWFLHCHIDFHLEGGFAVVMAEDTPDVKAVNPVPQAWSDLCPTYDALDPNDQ

SMILES: Oc1ccccc1O [Catechol]
Km (rLacC [2]): 16300 ± 1720 µM

SMILES: COc1cc(/C=C/C(=O)O)ccc1O [Ferulic acid]
Km (rLacC [3]): 173 ± 38 µM

Continued, in another order:

Km (rLacC [1]): 589 ± 75 µM
SMILES: COc1cccc(OC)c1O [2,6-DMP, 2,6-dimethoxyphenol]

Km (rLacC [4]): 15700 ± 337 µM
SMILES: COc1ccccc1O [Guaiacol]

Km (rLacC [5]): 71 ± 14 µM
SMILES: COc1cc(/C=C/C(=O)O)cc(OC)c1O [Synapic acid]
Km (LacA): 17 ± 2 µM
